Target: T1, p53 Y220C (Homo sapiens, UniProt P04637, Y220C)
T1 construct: The recombinant protein was a truncation mutant containing only amino acids 94-312 of p53; made in house; host or cells: E. coli
Experiment: In vitro DNA binding activity assay (HTRF / TR-FRET): stabilization of p53 Y220C and increase of its DNA binding activity
Type: biochemical
Conditions: recombinant His-tagged p53 Y220C DNA binding domain (aa 94-312), biotin-labeled consensus DNA, incubated at 27° C. or 29° C. for 60 min
Procedure, shortened: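 Stabilization of the mutant is inferred from increased binding of His-tagged p53 Y220C to a biotin-labeled consensus DNA, detected by HTRF with europium-streptavidin and APC-anti-His antibody. The concentration giving a 50% rise over compound-free binding is reported as SC150.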

T1 sequence (P04637 94-312, change not shown): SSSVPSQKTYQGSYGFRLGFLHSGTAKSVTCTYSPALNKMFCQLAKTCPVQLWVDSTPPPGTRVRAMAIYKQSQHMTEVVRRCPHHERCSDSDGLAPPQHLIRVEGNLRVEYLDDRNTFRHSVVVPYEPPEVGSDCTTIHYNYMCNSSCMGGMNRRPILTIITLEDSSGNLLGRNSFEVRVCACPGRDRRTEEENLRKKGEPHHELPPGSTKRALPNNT

Q: For COc1cc(S(C)(=O)=O)ccc1NCC#Cc1cc2c(N[C@H]3CC[C@H](N4CCC5(CCO5)CC4)CC3)cccc2n1CC(F)(F)F [Compound 383A, 2-{3-[(4-methane-sulfonyl-2-methoxy-phenyl)amino]prop-1-yn-1-yl}-N-[(1R,4R)-4-{1-oxa-7-azaspiro[3.5]nonan-7-yl}cyclohexyl]-1-(2,2,2-trifluoroethyl)-1H-indol-4-amine], which “SC150 (concentration of the compound required to increase the DNA binding activity by 50%)” value is on record?
A: + (+ = 0 μM ≤ SC150 < 0.05 μM)

Q: For COc1cc(S(=O)(=O)N2CCOCC2)ccc1NCC#Cc1cc2c(NC3CCNCC3)cccc2n1CC(F)(F)F [Compound 459A, 2-(3-{[2-methoxy-4-(morpholine-4-sulfonyl)phenyl]amino}prop-1-yn-1-yl)-N-(piperidin-4-yl)-1-(2,2,2-trifluoroethyl)-1H-indol-4-amine], which “SC150 (concentration of the compound required to increase the DNA binding activity by 50%)” value is on record?
A: + (+ = 0 μM ≤ SC150 < 0.05 μM)

Q: With COc1cc(S(C)(=O)=O)ccc1NCC#Cc1cc2c(NC3CCN(C)CC3)cc(F)cc2n1CC(F)(F)F [Compound 475A, 6-fluoro-2-{3-[(4-methanesulfonyl-2-methoxyphenyl)amino]prop-1-yn-1-yl}-N-(1-methylpiperidin-4-yl)-1-(2,2,2-trifluoroethyl)-1H-indol-4-amine] as the compound, how does the “SC150 (concentration of the compound required to increase the DNA binding activity by 50%)” value read?
A: +++ (+++ = 0.1 μM ≤ SC150 < 0.2 μM)

Q: How did the “SC150 (concentration of the compound required to increase the DNA binding activity by 50%)” value turn out when CNC(=O)c1ccc(NCC#Cc2cc3c(NC4CCN(CC(C)O)CC4)cccc3n2CC(F)(F)F)c(OC)c1 (stereo not shown) [Compound 596A, 4-{[3-(4-{[1-(2-hydroxypropyl)piperidin-4-yl]amino}-1-(2,2,2-trifluoroethyl)-1H-indol-2-yl)prop-2-yn-1-yl]amino}-3-methoxy-N-methylbenzamide] was run?
A: + (+ = 0 μM ≤ SC150 < 0.05 μM)

Q: For CN(C)[C@H]1CC[C@@H](Nc2cccc3c2cc(C#CCNc2ccc(S(C)(=O)=O)cc2O)n3CC(F)(F)F)CC1 [Compound 79A, 5-methanesulfonyl-2-{[3-(4-{[(1R,4R)-4-(dimethylamino)cyclohexyl]amino}-1-(2,2,2-trifluoroethyl)-1H-indol-2-yl)prop-2-yn-1-yl]amino}phenol], which “SC150 (concentration of the compound required to increase the DNA binding activity by 50%)” value is on record?
A: + (+ = 0 μM ≤ SC150 < 0.05 μM)

Q: How did the “SC150 (concentration of the compound required to increase the DNA binding activity by 50%)” value turn out when COc1cc(Cl)ccc1NCC#Cc1cc2c(N[C@H]3CC[C@H](N4CC5(COC5)C4)CC3)cccc2n1CC(F)(F)F [Compound 265A, N-((1R,4R)-4-(2-oxa-6-azaspiro[3.3]heptan-6-yl)cyclohexyl)-2-(3-((4-chloro-2-methoxyphenyl)amino)prop-1-yn-1-yl)-1-(2,2,2-trifluoroethyl)-1H-indol-4-amine] was run?
A: + (+ = 0 μM ≤ SC150 < 0.05 μM)

Q: For COc1cc(S(=O)(=O)Nc2cc(C)on2)ccc1NCC#Cc1cc2c(N[C@H]3CC[C@@H](N(C)C)CC3)cccc2n1CC(F)(F)F [Compound 54A, 3-methoxy-N-(5-methyl-1,2-oxazol-3-yl)-4-{[3-(4-{[(1S,4S)-4-(dimethylamino)cyclohexyl]amino}-l-(2,2,2-trifluoroethyl)-1H-indol-2-yl)prop-2-yn-1-yl]amino}benzene-1-sulfonamide], which “SC150 (concentration of the compound required to increase the DNA binding activity by 50%)” value is on record?
A: + (+ = 0 μM ≤ SC150 < 0.05 μM)

Q: How did the “SC150 (concentration of the compound required to increase the DNA binding activity by 50%)” value turn out when COCC(O)CN1CCC(Nc2cccc3c2cc(C#CCNc2ccc(S(=O)(=O)c4ccccc4)cc2OC)n3CC(F)(F)F)CC1 (stereo not shown) [Compound 691A, 1-(4-{[2-(3-{[4-(benzenesulfonyl)-2-methoxyphenyl]amino}prop-1-yn-1-yl)-1-(2,2,2-trifluoroethyl)-1H-indol-4-yl]amino}piperidin-1-yl)-3-methoxypropan-2-ol] was run?
A: + (+ = 0 μM ≤ SC150 < 0.05 μM)

Q: COc1cc(S(C)(=O)=O)ccc1NCC#Cc1cc2c(N[C@H]3CCOC[C@H]3F)cccc2n1CC(F)(F)F (racemic) [Compound 1022A, rac-N-[(3R,4R)-3-fluorooxan-4-yl]-2-{3-[(4-methanesulfonyl-2-methoxyphenyl)amino]prop-1-yn-1-yl}-1-(2,2,2-trifluoroethyl)-1H-indol-4-amine] was tested. Which “SC150 (concentration of the compound required to increase the DNA binding activity by 50%)” value did it give?
A: + (+ = 0 μM ≤ SC150 < 0.05 μM)

Q: How did the “SC150 (concentration of the compound required to increase the DNA binding activity by 50%)” value turn out when COc1cc(C(N)=O)ccc1NCC#Cc1cc2c(N[C@H]3CC[C@H](N4CC5(COC5)C4)CC3)cccc2n1CC(F)(F)F [Compound 212A, 3-methoxy-4-{[3-(4-{[(1R,4R)-4-{2-oxa-6-azaspiro[3.3]heptan-6-yl}cyclohexyl]amino}-1-(2,2,2-trifluoroethyl)-1H-indol-2-yl)prop-2-yn-1-yl]amino}benzamide] was run?
A: + (+ = 0 μM ≤ SC150 < 0.05 μM)

Q: Which “SC150 (concentration of the compound required to increase the DNA binding activity by 50%)” value does the source give for COc1cc(S(N)(=O)=O)ccc1NCC#Cc1cc2c(N[C@@H]3CCN(C[C@H](COC(C)=O)OC(C)=O)C[C@@H]3F)cccc2n1CC(F)(F)F [Compound 890A, (2R)-1-(acetyloxy)-3-[(3S,4R)-3-fluoro-4-[(2-{3-[(2-methoxy-4-sulfamoylphenyl)amino]prop-1-yn-1-yl}-1-(2,2,2-trifluoroethyl)-1H-indol-4-yl)amino]piperidin-1-yl]propan-2-yl acetate] here?
A: + (+ = 0 μM ≤ SC150 < 0.05 μM)

Q: For CNC(=O)c1ccc(NCC#Cc2cc3c(NC4CCN(C[C@@H](O)COC)CC4)cccc3n2CC(F)(F)F)c(OC)c1 [Compound 647A, 4-({3-[4-({1-[(2R)-2-hydroxy-3-methoxypropyl]piperidin-4-yl}amino)-1-(2,2,2-trifluoroethyl)-1H-indol-2-yl]prop-2-yn-1-yl}amino)-3-methoxy-N-methylbenzamide], which “SC150 (concentration of the compound required to increase the DNA binding activity by 50%)” value is on record?
A: + (+ = 0 μM ≤ SC150 < 0.05 μM)

Q: With COC(=O)c1ccc(NCC#Cc2cc3c(N[C@H]4CCN(C[C@@H](C)O)C[C@H]4F)cccc3n2CC(F)(F)F)c(OC)c1 [Compound 905A, methyl 4-{[3-(4-{[(3R,4S)-3-fluoro-1-(2-hydroxypropyl)piperidin-4-yl]amino}-1-(2,2,2-trifluoroethyl)-1H-indol-2-yl)prop-2-yn-1-yl]amino}-3-methoxybenzoate] as the compound, how does the “SC150 (concentration of the compound required to increase the DNA binding activity by 50%)” value read?
A: + (+ = 0 μM ≤ SC150 < 0.05 μM)

Q: With CNC(=O)c1ccc(NCC#Cc2cc3c(N[C@H]4CC[C@H](N5CCC6(CCOC6)CC5)CC4)cccc3n2CC(F)(F)F)c(OC)c1 [Compound 409A, 3-methoxy-N-methyl-4-{[3-(4-{[(1R,4R)-4-{2-oxa-8-azaspiro[4.5]decan-8-yl}cyclohexyl]amino}-1-(2,2,2-trifluoroethyl)-1H-indol-2-yl)prop-2-yn-1-yl]amino}benzamide] as the compound, how does the “SC150 (concentration of the compound required to increase the DNA binding activity by 50%)” value read?
A: + (+ = 0 μM ≤ SC150 < 0.05 μM)

Q: CNC(=O)c1ccc(NCC#Cc2cc3c(N[C@H]4CC[C@@H](N5CC6(CCOCC6)C5)CC4)cccc3n2CC(F)(F)F)c(OC)c1 [Compound 296A, 3-methoxy-N-methyl-4-{[3-(4-{[(1S,4S)-4-{7-oxa-2-azaspiro[3.5]nonan-2-yl}cyclohexyl]amino}-1-(2,2,2-trifluoroethyl)-1H-indol-2-yl)prop-2-yn-1-yl]amino} benzamide] was tested. Which “SC150 (concentration of the compound required to increase the DNA binding activity by 50%)” value did it give?
A: + (+ = 0 μM ≤ SC150 < 0.05 μM)

Q: CCN1CCC(Nc2cccc3c2cc(C#CCNc2ccc(S(C)(=O)=O)cc2OC)n3CC(F)(F)F)CC1 [Compound 537A] was tested. Which “SC150 (concentration of the compound required to increase the DNA binding activity by 50%)” value did it give?
A: + (+ = 0 μM ≤ SC150 < 0.05 μM)

Q: How did the “SC150 (concentration of the compound required to increase the DNA binding activity by 50%)” value turn out when CN1CCC(Nc2cccc3c2cc(C#CCNc2ccc(S(C)(=O)=O)cc2OCF)n3CC(F)(F)F)CC1 [Compound 490A, 2-(3-{[2-(fluoromethoxy)-4-methanesulfonylphenyl]amino}prop-1-yn-1-yl)-N-(1-methylpiperidin-4-yl)-1-(2,2,2-trifluoroethyl)-1H-indol-4-amine] was run?
A: + (+ = 0 μM ≤ SC150 < 0.05 μM)

Q: With COc1cc(C(F)(F)F)ccc1NCC#Cc1cc2c(NC3CCN(C)CC3)cccc2n1CC(F)(F)F [Compound 515A, 2-(3-{[2-methoxy-4-(trifluoromethyl)phenyl]amino}prop-1-yn-1-yl)-N-(1-methylpiperidin-4-yl)-1-(2,2,2-trifluoroethyl)-1H-indol-4-amine] as the compound, how does the “SC150 (concentration of the compound required to increase the DNA binding activity by 50%)” value read?
A: ++ (++ = 0.05 μM ≤ SC150 < 0.1 μM)

Q: With CNC(=O)c1ccc(NCC#Cc2cc3c(N[C@@H]4CCN(C(C)(C)C)C[C@@H]4F)cccc3n2CC(F)(F)F)c(OC)c1 [Compound 1072A, 4-{[3-(4-{[(3S,4R)-1-tert-butyl-3-fluoropiperidin-4-yl]amino}-1-(2,2,2-trifluoroethyl)-1H-indol-2-yl)prop-2-yn-1-yl]amino}-3-methoxy-N-methylbenzamide] as the compound, how does the “SC150 (concentration of the compound required to increase the DNA binding activity by 50%)” value read?
A: + (+ = 0 μM ≤ SC150 < 0.05 μM)

Q: How did the “SC150 (concentration of the compound required to increase the DNA binding activity by 50%)” value turn out when CNC1CCC(Nc2cccc3c2cc(C#CCNc2ccc(S(C)(=O)=O)cc2OC)n3CC(F)(F)F)C(F)C1 (stereo not shown) [Compound 39A] was run?
A: + (+ = 0 μM ≤ SC150 < 0.05 μM)

Q: For COc1cc(S(C)(=O)=O)ccc1NCC#Cc1cc2c(N[C@H]3CCN(CC(=O)NCCN(Cc4ccccn4)Cc4ccccn4)C[C@H]3F)cccc2n1CC(F)(F)F (racemic) [Compound 891A, rac-N-(2-{bis[(pyridin-2-yl)methyl]amino}ethyl)-2-[(3R,4S)-3-fluoro-4-[(2-{3-[(4-methanesulfonyl-2-methoxyphenyl)amino]prop-1-yn-1-yl}-1-(2,2,2-trifluoroethyl)-1H-indol-4-yl)amino]piperidin-1-yl]acetamide], which “SC150 (concentration of the compound required to increase the DNA binding activity by 50%)” value is on record?
A: + (+ = 0 μM ≤ SC150 < 0.05 μM)

Q: COc1cc(C(=O)O)ccc1NCC#Cc1cc2c(N[C@H]3CCNC[C@H]3F)cccc2n1CC(F)(F)F [Compound 852A] was tested. Which “SC150 (concentration of the compound required to increase the DNA binding activity by 50%)” value did it give?
A: + (+ = 0 μM ≤ SC150 < 0.05 μM)
